# Data reported in the supplement of paper PMC5844555.
# What was measured:
# Assay in all cases: 3' UTR reporter interaction score (median-centred robust z-score of log2 firefly/Renilla activity); higher = less repression of the 3' UTR reporter
# Settings in all cases: HEK293T; 48 h
# [1] = system: BRCA2
# Method in brief: (§1)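 Firefly and Renilla luciferase activities were read 48 h post-transfection in HEK293T cells (10,000/well, 96-well plates). The cells had received 100 ng firefly luc2P reporter bearing the gene's 3' UTR, 20 ng Renilla pRL-TK control and 2.5 pmol miRNA mimic via DharmaFECT Duo. The interaction score, where more negative means interaction, is a per-plate robust z-score (median, median absolute deviation) of the log firefly/Renilla ratio, median-centred per miRNA and averaged over at least two independent screens.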
# [2] = system: EZH2
# Method in brief: as §1
# [3] = system: FBXW7
# Method in brief: as §1
# [4] = system: HRAS
# Method in brief: as §1
# [5] = system: MYB
# Method in brief: as §1
# [6] = system: MYCN
# Method in brief: as §1
# [7] = system: MYC
# Method in brief: as §1
# [8] = system: MYT1L
# Method in brief: as §1
# [9] = system: NOTCH1
# Method in brief: as §1
# [10] = system: PHF6
# Method in brief: as §1
# [11] = system: PHOX2B
# Method in brief: as §1
# [12] = system: RB1
# Method in brief: as §1
# [13] = system: TP53
# Method in brief: as §1
# [14] = system: ZEB2
# Method in brief: as §1
Sequence,3' UTR reporter interaction score [1],3' UTR reporter interaction score [2],3' UTR reporter interaction score [3],3' UTR reporter interaction score [4],3' UTR reporter interaction score [5],3' UTR reporter interaction score [6],3' UTR reporter interaction score [7],3' UTR reporter interaction score [8],3' UTR reporter interaction score [9],3' UTR reporter interaction score [10],3' UTR reporter interaction score [11],3' UTR reporter interaction score [12],3' UTR reporter interaction score [13],3' UTR reporter interaction score [14]
CUCCAGAGGGAAGUACUUUCU,-0.139,-0.448,1.4,-1.03,1.53,-0.236,-0.333,1.19,-0.176,1.27,0.786,-2.92,-0.641,0.514
CUCCAGAGGGAUGCACUUUCU,-0.169,0.363,-0.219,-0.937,-0.659,-0.234,0.629,0.128,0.885,1.04,1.08,0.459,0.339,-0.701
CUCUAGAGGGAAGCACUUUCU,-0.166,-0.021,-1.73,0.934,1.78,-0.174,0.565,-0.138,0.59,-0.252,-1.07,-0.897,-0.127,1.31
CUCUAGAGGGAAGCACUUUCUCU,-0.0386,-0.139,-2.17,1.4,2.18,-0.181,0.549,0.381,0.176,-0.193,-2.05,-0.223,-0.432,-0.685
CUCUAGAGGGAAGCGCUUUCUGUU,-0.378,-0.269,-0.944,-0.0223,1.71,-0.278,0.337,0.721,1.16,-0.0745,-1.2,-0.121,0.361,0.37
CUCUUGAGGGAAGCACUUUCUGUU,0.199,1.02,1.21,-0.664,1.52,0.894,-0.277,0.407,-0.119,-2.75,-0.0184,-0.331,0.305,-0.69
CUGAAGUGAUGUGUAACUGAUCAG,-1.33,0.809,-0.0116,0.253,-1.34,-0.441,0.252,1.21,2.11,-0.442,-1.07,-0.534,0.516,-0.764
CUGACCUAUGAAUUGACAGCC,-0.668,-0.124,-0.577,0.344,0.682,1.31,1.2,0.445,0.282,-3.78,-1.28,-2.94,0.334,-6.22
CUGCAAAGGGAAGCCCUUUCU,-0.0732,-3.8,-3.15,0.112,1.16,1.29,1.15,0.529,-1.22,-2.67,-0.887,1.27,0.104,-4.11
CUGGACUUAGGGUCAGAAGGCC,-1.05,-0.857,-0.885,0.067,1.31,0.447,-0.781,0.968,-1.28,0.77,1.18,1.37,-0.836,2.31
CUGGACUUGGAGUCAGAAGGCC,-0.913,-1.01,-1.21,0.243,1.36,0.91,-0.585,1.12,-1.42,0.484,0.64,-0.493,-0.688,1.96
CUGGAUGGCUCCUCCAUGUCU,-1.72,-1.36,0.945,-0.334,0.532,1.88,-0.501,-0.148,0.182,1.87,1.08,-2.12,0.127,0.281
CUGGCCCUCUCUGCCCUUCCGU,0.17,0.421,-0.17,1.31,0.857,1.01,1.14,0.19,-0.752,-2.64,-0.839,-0.329,-0.27,0.72
CUGGGAUCUCCGGGGUCUUGGUU,-0.371,-0.155,0.0113,-0.593,-0.958,0.56,0.773,-0.147,-0.177,-0.552,0.484,2.57,-1.29,-0.251
CUGUGCGUGUGACAGCGGCUGA,-0.102,-0.315,0.121,-0.943,1.02,0.24,-0.0999,-2.16,0.0936,0.722,-2.14,1.29,0.618,2.18
CUUCUUGUGCUCUAGGAUUGU,-1.63,0.0594,-1.11,0.138,0.218,0.82,0.759,-0.427,-0.719,-0.418,-1.49,0.605,-0.0486,0.0232
CUUGGUUCAGGGAGGGUCCCCA,-0.342,0.379,-2.49,-0.543,0.238,0.421,-0.0193,0.48,-0.824,0.112,0.231,-0.223,-0.22,1.64
CUUUCAGUCGGAUGUUUACAGC,0.0637,-0.714,-0.0926,0.423,0.713,0,-0.326,-0.118,0.359,-0.685,-0.851,0.295,0.358,-0.248
CUUUCAGUCGGAUGUUUGCAGC,-0.362,-0.356,-0.137,0.271,0.557,-0.166,0.164,0.0662,0.454,-0.502,0.68,-0.473,-0.309,0.565
